Measurements published in patent publication US8614201B2 (Janssen Pharmaceutica NV, priority 2009, dated 2013).
pIC50: −log10 of the molar value.

Target: Human TRPA1 (Homo sapiens, UniProt O75762)
Assay: Alternative TRPA1 Ca2+ fluorometry assay (hTRPA1/TREx-HEK293 cells, Fluo-4, FDSS 6000)
Assay type: cell-based
Parameters: expressed in transfected cells
Settings: Fluo-4-AM, agonist 6,11-dihydro-5H-dibenzo[b,e]azepine-10-carboxylic acid methyl ester 25 nM, procedure used for Examples 184, 190 to 192, 194 to 316
In short: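 Tetracycline-induced (50 ng/ml, 24 h) hTRPA1/TREx-HEK293 cells were loaded with Fluo-4-AM and probenecid. Compound (1% DMSO final) was added after a 12 s baseline and the Ca2+ signal followed for 14 min, then 25 nM TRPA1 agonist dibenzazepine carboxylic acid methyl ester was applied. Signal is Em540 (ex 488 nm) relative to the first baseline reading.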

Chain of Human TRPA1 (O75762 whole entry): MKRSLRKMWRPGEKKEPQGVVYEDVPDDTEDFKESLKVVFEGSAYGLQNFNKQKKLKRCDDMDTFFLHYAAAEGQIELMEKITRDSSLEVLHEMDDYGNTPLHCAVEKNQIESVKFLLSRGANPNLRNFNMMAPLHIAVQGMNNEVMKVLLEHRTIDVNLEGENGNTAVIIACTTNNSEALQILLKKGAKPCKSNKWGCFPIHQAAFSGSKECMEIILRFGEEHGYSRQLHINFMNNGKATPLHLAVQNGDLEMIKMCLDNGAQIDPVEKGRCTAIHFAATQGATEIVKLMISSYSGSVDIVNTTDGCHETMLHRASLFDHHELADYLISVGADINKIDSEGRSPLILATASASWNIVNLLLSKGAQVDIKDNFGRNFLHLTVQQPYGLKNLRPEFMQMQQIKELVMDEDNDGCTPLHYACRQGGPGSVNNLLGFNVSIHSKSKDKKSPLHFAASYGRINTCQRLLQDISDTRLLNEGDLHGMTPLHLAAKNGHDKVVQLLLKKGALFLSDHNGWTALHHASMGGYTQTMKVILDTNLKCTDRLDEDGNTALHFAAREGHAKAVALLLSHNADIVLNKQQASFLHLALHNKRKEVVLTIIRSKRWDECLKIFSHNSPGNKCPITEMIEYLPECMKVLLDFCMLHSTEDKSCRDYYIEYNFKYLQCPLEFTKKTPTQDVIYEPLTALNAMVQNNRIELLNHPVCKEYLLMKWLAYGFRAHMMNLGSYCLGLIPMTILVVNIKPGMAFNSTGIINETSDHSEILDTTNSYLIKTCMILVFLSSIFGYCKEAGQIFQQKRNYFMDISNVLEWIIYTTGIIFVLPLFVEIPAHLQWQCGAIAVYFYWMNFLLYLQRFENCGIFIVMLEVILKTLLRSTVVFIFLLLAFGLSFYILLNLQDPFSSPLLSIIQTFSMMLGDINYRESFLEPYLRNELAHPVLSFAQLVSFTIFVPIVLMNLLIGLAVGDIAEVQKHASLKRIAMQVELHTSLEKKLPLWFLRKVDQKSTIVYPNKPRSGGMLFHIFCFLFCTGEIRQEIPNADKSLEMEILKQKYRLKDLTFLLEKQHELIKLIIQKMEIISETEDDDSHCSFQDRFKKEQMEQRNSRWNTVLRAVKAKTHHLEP

Compound | pIC50
O=C(NCc1cc(-c2ccc(C(F)(F)F)cc2)nc(N2CCN(c3ccccc3F)CC2)n1)[C@@H]1CCCN1S(=O)(=O)c1ccc(F)c(F)c1F [Example 261, 1-(2,3,4-Trifluoro-benzenesulfonyl)-pyrrolidine-2S-carboxylic acid [2-[4-(2-fluoro-phenyl)-piperazin-1-yl]-6-(4-trifluoromethyl-phenyl)-pyrimidin-4-ylmethyl]-amide] | 5.57
O=C(NCc1cc(-c2ccc(Br)cc2)nc(N2CCc3ccccc3C2)n1)[C@@H]1CCCN1S(=O)(=O)c1ccc(F)cc1 [Example 222, 1-(4-Fluoro-benzenesulfonyl)-pyrrolidine-2S-carboxylic acid [6-(4-bromo-phenyl)-2-(3,4-dihydro-1H-isoquinolin-2-yl)-pyrimidin-4-ylmethyl]-amide] | 5.04
O=C(NCc1cc(-c2ccc3c(c2)OCO3)nc(NCCc2ccccn2)n1)[C@@H]1CCCN1S(=O)(=O)c1ccc(F)cc1 [Example 203, 1-(4-Fluoro-benzenesulfonyl)-pyrrolidine-2S-carboxylic acid [6-benzo[1,3]dioxol-5-yl-2-(2-pyridin-2-yl-ethylamino)-pyrimidin-4-ylmethyl]-amide] | ~5.19
O=C(NCc1cc(-c2ccc3c(c2)OCO3)nc(N2CCc3ccccc3C2)n1)[C@@H]1CCCN1S(=O)(=O)c1ccc(F)cc1 [Example 208, 1-(4-Fluoro-benzenesulfonyl)-pyrrolidine-2S-carboxylic acid [6-benzo[1,3]dioxol-5-yl-2-(3,4-dihydro-1H-isoquinolin-2-yl)-pyrimidin-4-ylmethyl]-amide] | 5.64
O=C(NCc1cc(-c2ccc3c(c2)OCO3)nc(NCc2cccnc2)n1)[C@@H]1CCCN1S(=O)(=O)c1ccc(F)cc1 [Example 201, 1-(4-Fluoro-benzenesulfonyl)-pyrrolidine-2S-carboxylic acid {6-benzo[1,3]dioxol-5-yl-2-[(pyridin-3-ylmethyl)-amino]-pyrimidin-4-ylmethyl}-amide] | 5.09
O=C(NCc1cc(-c2ccc(Cl)cc2)nc(N2CCN(c3ccccc3F)CC2)n1)[C@@H]1CCCN1S(=O)(=O)c1ccc(F)cc1 [Example 241, 1-(4-Fluoro-benzenesulfonyl)-pyrrolidine-2-carboxylic acid {6-(4-chloro-phenyl)-2-[4-(2-fluoro-phenyl)-piperazin-1-yl]-pyrimidin-4-ylmethyl}-amide] | 6.38

The remaining lines, values ahead:

pIC50 | Compound
5.21 | O=C(NCc1cc(-c2ccc(C(F)(F)F)cc2)nc(N2CCN(c3ccccc3F)CC2)n1)[C@@H]1CCCN1S(=O)(=O)c1ccccc1F [Example 276, 1-(2-Fluoro-benzenesulfonyl)-pyrrolidine-2S-carboxylic acid [2-[4-(2-fluoro-phenyl)-piperazin-1-yl]-6-(4-trifluoromethyl-phenyl)-pyrimidin-4-ylmethyl]-amide]
~6.14 | O=C(NCc1cccc(-c2ccc(C(F)(F)F)cc2)n1)[C@@H]1CCCN1S(=O)(=O)c1ccc(F)cc1 [Example 283, 1-(4-Fluoro-benzenesulfonyl)-pyrrolidine-2S-carboxylic acid [6-(4-trifluoromethyl-phenyl)-pyridin-2-ylmethyl]-amide]
5.35 | CC1CCN(c2nc(CNC(=O)[C@@H]3CCCN3S(=O)(=O)c3ccc(F)cc3)cc(-c3ccc(Br)cc3)n2)CC1 [Example 296, 1-(4-Fluoro-benzenesulfonyl)-pyrrolidine-2S-carboxylic acid [6-(4-bromo-phenyl)-2-(4-methyl-piperidin-1-yl)-pyrimidin-4-ylmethyl]-amide]
< 5.00 | O=C(NCc1cc(-c2ccc(C(F)(F)F)cc2)nc(N2CCN(c3ccccc3F)CC2)n1)[C@@H]1CCCN1S(=O)(=O)c1ccc(Cl)cc1F [Example 278, 1-(4-Chloro-2-fluoro-benzenesulfonyl)-pyrrolidine-2S-carboxylic acid [2-[4-(2-fluoro-phenyl)-piperazin-1-yl]-6-(4-trifluoromethyl-phenyl)-pyrimidin-4-ylmethyl]-amide]
